{
  "source": "paper PMC4240342",
  "about": "(Bioconjugate Chemistry, 2014)",
  "system": "human osteosarcoma Saos-2 cells",
  "assay": "Cytotoxicity, CCK-8 bioassay",
  "type": "cell-based",
  "conditions": "read-out: IC50, cytotoxicity, 72 h incubation, CCK-8, concentrations as hydrazone-bound DOX content, mean ± SEM of three experiments",
  "data": [
    {"smiles": "COc1cccc2c1C(=O)c1c(O)c3c(c(O)c1C2=O)C[C@@](O)(C(=O)CO)C[C@@H]3O[C@H]1C[C@H](N)[C@H](O)[C@H](C)O1", "note": "[Free DOX, Doxorubicin]", "values": [
      {"measurement": "IC50", "value": "77 ± 9", "unit": "nM"}
    ]}
  ]
}
